Data on 1 molecule can be found in patent US9657022B2, “7-OXO-1,6-diazabicyclo[3.2.1]octane derivatives and their use as antibacterial agents” (WOCKHARDT LIMITED, priority 2014, dated 2017).

Converted amounts (≈) assume the structure as drawn. “And” between values parts separate entries of the source, which are not always exact repeats. Identical values can stand only once.

In general, IC50 refers to the concentration at which inhibition is half-maximal. The MIC is the smallest concentration in the dilution series that meets the test's criterion for growth inhibition.

Experiment [1] deals with T1, Class C beta-lactamase P99 (E. cloacae J137) (Enterobacter cloacae, UniProt P05364).
T1 construct: preincubated mixture of crude enzyme and the compounds; endogenous in cells; host or cells: E. cloacae J137
T1 sequence (P05364 21-381): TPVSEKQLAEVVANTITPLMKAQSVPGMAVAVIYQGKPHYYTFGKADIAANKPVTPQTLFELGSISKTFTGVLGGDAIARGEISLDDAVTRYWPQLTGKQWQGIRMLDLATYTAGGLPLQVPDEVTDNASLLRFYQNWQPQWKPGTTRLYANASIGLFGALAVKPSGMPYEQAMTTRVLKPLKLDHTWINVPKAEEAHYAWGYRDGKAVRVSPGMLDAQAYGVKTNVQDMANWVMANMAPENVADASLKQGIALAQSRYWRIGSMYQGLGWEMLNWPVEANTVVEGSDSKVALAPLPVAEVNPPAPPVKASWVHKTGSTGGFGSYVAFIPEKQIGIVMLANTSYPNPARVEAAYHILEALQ
As to the kind of experiment: Beta-lactamase enzyme inhibition (Nitrocefin, crude enzyme). It counts as biochemical. The protocol: (§1) Absorbance was measured at 485 nm by UV-spectrophotometer. The IC50 was calculated by plotting absorbance against concentration through Sigmoidal dose response curve using Graph Pad software.

Experiment [2] has as its target Class D beta-lactamase OXA 26 (A. baumannii NCTC 13303) (Acinetobacter baumannii, UniProt Q9F0V2). The experiment is described as above. It counts as biochemical. The following applies: A. baumannii NCTC 13303 (OXA 26), read-out: Beta-lactamase enzyme inhibition IC50. How it is done: as §1
The subject of experiment [3] is E. coli NCTC 13353 (CTX-M15, OXA-1). As to the kind of experiment: Antibacterial activity (MIC), agar dilution per CLSI. It counts as cell-based. The following applies: Escherichia coli, NCTC13353; E. coli NCTC 13353 (CTX-M15, OXA-1); read-out: MIC. The protocol: (§2) The biological activity of representative compounds according to the invention against various bacterial strains was investigated. In a typical study, overnight grown bacterial cultures were diluted appropriately and inoculated on the agar media containing doubling dilutions of the test compounds. Observations for growth or no growth was performed after 16-20 hours of incubation at 35±2° C. in the ambient air. The overall procedure was performed as per Clinical and Laboratory Standards Institute (CLSI) recommendations, (Clinical and Laboratory Standards Institute (CLSI), Performance Standards for Antimicrobial Susceptibility Testing, 20th Informational Supplement, M07-A9, Volume 32, No. 2, 2012). Molten Mueller Hinton Agar (BD, USA) containing serial dilutions of each antibacterial agent were poured on to the plates and allowed to solidify. Appropriate suspensions from the freshly grown cultures were prepared in normal saline so that about 10^4 CFU/spot of the organism was delivered on to the drug containing agar plates using automated multipoint inoculator (Mast, UK). The plates were incubated in Biochemical oxygen demand (BOD) incubator at 37° C. for 18 hours and then examined for growth.
(§3) The strains selected for study included E. coli NCTC 13353 producing CTX-M15 and OXA-1 beta-lactamase enzymes; K. pneumoniae H521 producing KPC, SHV, TEM beta-lactamase enzymes; and K. pneumoniae S48 producing NDM, SHV, TEM beta-lactamase enzymes. The activities are expressed as Minimum Inhibitory Concentrations (MICs) (mcg/ml).
(§4) The activities are expressed as Minimum Inhibitory Concentrations (MICs) (mcg/ml).
(Agar dilution tests growth on a series of plates holding different concentrations.)

Experiment [4] concerns K. pneumoniae H521 (KPC, SHV, TEM). The description is as above. It counts as cell-based. Conditions: Klebsiella pneumoniae; K. pneumoniae H521 (KPC, SHV, TEM); read-out: MIC. How it is done:
as §2, §3, §4

For another experiment, the system named is E. coli NCTC 13351. Described as above. It counts as cell-based. Conditions: Escherichia coli, NCTC13351. The protocol: as §2
(§5) Table 3 details the antibacterial activity of representative compound of Formula (I), (2S,5R)-sulfuric acid mono-{2-[N′-(2-(S)-pyrrolidin-2-yl-acetyl)-hydrazinocarbonyl]-7-oxo-1,6-diaza-bicyclo[3.2.1]oct-6-yl}ester (Compound of Example 1), against various Multi Drug Resistant (MDR) Gram-negative bacterial strains. The activities are expressed as Minimum Inhibitory Concentrations (MICs) (mcg/ml).

A further experiment has as its system K. pneumoniae H 525. Described as above. Type of experiment: cell-based. The following applies: Klebsiella pneumoniae, H525. The protocol: as §2, §5
In the next experiment the test system is E. coli M 49. The experiment is described as above. Conditions: Escherichia coli, M49. Type of experiment: cell-based. The protocol: as §2, §5
For the next experiment, the system named is E. coli 7 MP. Described as above. The following applies: Escherichia coli. Type of experiment: cell-based. How it is done:
as §2, §5

The subject of the next experiment is C. frundaii 58 MP. The description is as above. It counts as cell-based. How it is done:
as §2, §5

Another experiment has as its system K. pneumoniae S 21. The description is as above. The following applies: Klebsiella pneumoniae, S21. Type of experiment: cell-based. How it is done: as §2, §5
The subject of the next experiment is P. aeruginosa PAO1. The experiment is described as above. It counts as cell-based. The following applies: Pseudomonas aeruginosa. How it is done:
as §2, §5

In a further experiment the test system is E. coli NCTC 13352. The experiment is described as above. The following applies: Escherichia coli, NCTC13352. Type of experiment: cell-based. The protocol: as §2, §5
The test system of a further experiment is E. coli M 50. The experiment is described as above. It counts as cell-based. The following applies: Escherichia coli, M50. The protocol:
as §2, §5

The next experiment concerns P. aeruginosa R 20. The description is as above. It counts as cell-based. The following applies: Pseudomonas aeruginosa, R20. How it is done: as §2, §5
The test system of another experiment is P. aeruginosa 2779. Described as above. Type of experiment: cell-based. The following applies: Pseudomonas aeruginosa. The protocol:
as §2, §5

In a further experiment the test system is E. cloacae M 20. The experiment is described as above. Type of experiment: cell-based. The following applies: Enterobacter cloacae, M20. The protocol: as §2, §5
Another experiment deals with P. aeruginosa ATCC 27853. Described as above. Conditions: Pseudomonas aeruginosa, ATCC27853. It counts as cell-based. The protocol: as §2, §5
Experiment [5] has as its target T2, Class A beta-lactamase SHV 18 (K. pneumoniae ATCC 700603) (Klebsiella pneumoniae, UniProt P0AD64, E235K/G234A/I4F/R39S).
T2 sequence (P0AD64 1-286 I4F/R39S/G234A/E235K): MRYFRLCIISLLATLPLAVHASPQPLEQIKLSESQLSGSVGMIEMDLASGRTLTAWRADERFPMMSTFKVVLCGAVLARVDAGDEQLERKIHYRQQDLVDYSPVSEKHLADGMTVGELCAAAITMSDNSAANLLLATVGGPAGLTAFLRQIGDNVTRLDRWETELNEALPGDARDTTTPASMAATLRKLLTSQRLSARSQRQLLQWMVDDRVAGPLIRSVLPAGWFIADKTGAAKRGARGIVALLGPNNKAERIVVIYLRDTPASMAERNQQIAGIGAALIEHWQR
The experiment is described as follows: Beta-lactamase enzyme inhibition (Nitrocefin, crude enzyme). It counts as biochemical. Conditions: Class A, K. pneumoniae ATCC 700603 (SHV 18); read-out: Beta-lactamase enzyme inhibition IC50. How it is done: as §1
The enzyme inhibition was expressed as IC50.

Chain of Class D beta-lactamase OXA 26 (A. baumannii NCTC 13303) (Q9F0V2 entry or part of it): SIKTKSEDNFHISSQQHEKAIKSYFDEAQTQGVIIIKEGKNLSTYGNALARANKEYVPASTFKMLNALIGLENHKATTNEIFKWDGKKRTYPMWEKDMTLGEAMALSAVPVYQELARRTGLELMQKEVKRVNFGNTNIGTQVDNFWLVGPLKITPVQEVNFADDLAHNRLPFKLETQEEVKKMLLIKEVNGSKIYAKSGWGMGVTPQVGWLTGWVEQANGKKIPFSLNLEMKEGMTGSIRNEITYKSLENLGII

Regarding `NC(=O)[C@@H]1CC[C@@H]2CN1C(=O)N2OS(=O)(=O)O` [Avibactam, avibactam, reference compound], the concentration for half-maximal inhibition (IC50) in experiment [1] was 79 nM; in [2] it was 10100 nM; in experiment [5] it was 98 nM and 10 nM. The MIC in experiment [3] was 16 µg/mL (≈ 60.3 µM); in experiment [4], 16 µg/mL (≈ 60.3 µM); with E. coli NCTC 13351 it was more than 64 µg/mL; in the experiment on K. pneumoniae H 525, 8 µg/mL (≈ 30.2 µM); in the experiment with E. coli M 49, 16 µg/mL (≈ 60.3 µM); against E. coli 7 MP, more than 64 µg/mL. The MIC against C. frundaii 58 MP is more than 64 µg/mL; against K. pneumoniae S 21 it was 16 µg/mL (≈ 60.3 µM); against P. aeruginosa PAO1, more than 64 µg/mL; with E. coli NCTC 13352 it was more than 64 µg/mL; against E. coli M 50, more than 64 µg/mL; against P. aeruginosa R 20, more than 64 µg/mL. Also, the MIC against P. aeruginosa 2779, against E. cloacae M 20 and in the experiment on P. aeruginosa ATCC 27853 was more than 64 µg/mL each time.
